Measurements: US20160051491A1, “NOVEL USE OF PINOSYLVIN FOR ANGIOGENESIS PROMOTION” (INDUSTRY-ACADEMIC COOPERATION FOUNDATION, DANKOOK UNIVERSITY, priority 2013, published 2016)

Key:
[1] = test system: Bovine aortic endothelial cells (BAECs); assay: Etoposide-induced apoptosis, Hoechst 33258 staining of fragmented nuclei; format: cell-based; conditions: FIG. 1B
Protocol: (§1) Bovine aortic endothelial cells (BAECs) were obtained from the descending thoracic aortas, and maintained in a growth medium (DMEM (1 g/L glucose, Life technologies, Inc.) containing 20% fetal bovine […] (FBS, Atlanta Biologicals) without antibiotics) at 37° C. in 5% CO2. The number of cells used for used in this study was between 3 generations and 10 generations, and they were allowed to grow in untreated culture dishes. Before drug treatment, BAECs were grown to confluency in a 5% CO2 incubator with growth media containing 50 μg/mL penicillin and 50 μg/mL streptomycin. The cells were then starved for between 4 hours and 24 hours in starvation media (DMEM supplemented with 0.5% FBS and 50 μg/mL penicillin and 50 μg/mL streptomycin).
For the apoptotic analysis, the confluent cells were incubated in 0.5% FBS-DMEM containing 0 μM or 100 μM etoposide (ETO, Sigma) or varying amounts of pinosylvin for 36 hours. […]
For Hoechst staining, the confluent cells were incubated with 0.5% FBS-DMEM containing 100 μM ETO without any compound (vehicle control) for 36 hours. […] After incubation, the stained cells were thoroughly washed with PBS and the nuclei were observed under a fluorescence microscope (Zeiss Autoplan 2) to confirm the occurrence of apoptosis.

caspase-3 = assay: Caspase-3 cleavage (Western blot) and caspase-3 colorimetric activity (Ac-DEVD-pNA) in BAEC lysates; format: cell-based, Bovine; conditions: FIGS. 1C and 1D
Protocol: Caspase-3 activity was measured with Ac-DEVD-pNA as a substrate using the caspase-3 Colorimetric Activity Assay Kit (Chemicon). Specifically, BAECs were grown to confluency in 20% FBS-DMEM and then starved for more than 8 hours. The cells were treated with various apoptotic agents (100 μM ETO) and then lysed. The cell lysates were reacted in a reaction buffer containing 236 μM Ac-DEVD-pNA with or without specific inhibitors (0.1 μM Ac-DEVD-CHO) in 96-well plates at 37° C. for 2 hours. Then, the caspase-3 activity was determined by measuring the absorbance of the reactions at 405 nm using a microplate reader (Bio-Rad, Model 550).
(§2) The BAECs were grown to confluency in 20% FBS-DMEM, washed with ice-cold PBS, scraped in 250 μL RIPA buffer (50 mM Tris, pH 7.5, 150 mM NaCl, 1% NP-40, 0.5% sodium deoxycholate, and 0.1% SDS), and solubilized for 15 minutes to prepare the cell lysates. All the solubilization procedures were performed at 4° C., and the protein content of the soluble cell lysates was measured using a Bio-Rad DC assay kit (Bio-Rad). The solution lysates (10 μg each) were resolved by SDS-PAGE. The resolved protein bands were then transferred to a polyvinylidene difluoride (PVDF) membrane (Bio-Rad) and probed with p-ERK (cell signaling), p-p38 MAP kinase (cell signaling), p-JNK (cell signaling), p-eNOS (cell signaling), p-Akt (cell signaling) and caspase-3 (cell signaling) for 1 hour to overnight. The membranes were then incubated with a secondary antibody at room temperature for 1 hour, where goat anti-rabbit IgG conjugated to alkaline phosphatase was used as a secondary antibody. Finally, the results were confirmed using a chemiluminescent detection method.

[2] = test system: Bovine aortic endothelial cells (BAECs); assay: Endothelial cell migration (wound scrape); format: cell-based; conditions: 1 pM pinosylvin, FIG. 4A
Protocol: Confluent BAECs were treated twice with 2 mM thymidine for 18 hours and wounded with a pipette tip. Then, the cells were incubated in the starvation media for 20 hours with increasing amounts of pinosylvin: 1) no pinosylvin, 2) 1 pM pinosylvin, or 3) 1 pM pinosylvin with 2.5 mM L-NAME, in DMEM, respectively. The migrated cells were observed under a microscope and quantified by counting the number of the migrated cells in the wound area.

JNK = assay: Western blotting of p-JNK in BAECs; format: cell-based, Bovine; conditions: 1 pM pinosylvin, 0 to 60 minutes, serum-depleted BAECs, FIG. 2
Protocol: as §2

[3] = test system: Bovine aortic endothelial cells (BAECs); assay: Endothelial tube formation on ECM gel; format: cell-based; conditions: FIG. 4B
Protocol: ECM gel (Cell Biolabs Inc.) was thawed overnight at 4° C. Then, the thawed gel 50 μL was added into each well of the 96-well plates. To form a gel, the 96-well plates were incubated at 37° C. for 1 hour. Then, the BAEC suspension (1.5×10^4 cells/100 μL) containing no pinosylvin, 1 pM pinosylvin, or 1 pM pinosylvin with 2.5 mM L-NAME, in DMEM, respectively, was added into a gel and placed in a 5% CO2 incubator at 37° C. for 12 hours to 18 hours. Then, the endothelial cells were observed under a microscope to confirm tube formation.

eNOS = assay: Western blotting of p-eNOS in BAECs; format: cell-based, Bovine; conditions: 1 pM pinosylvin, 0 to 60 minutes, serum-depleted BAECs, FIG. 2
Protocol: as §2

[4] = test system: Bovine aortic endothelial cells (BAECs); assay: Endothelial cell proliferation (microscopy, WST-1 assay); format: cell-based
Protocol: as §1
Cell proliferation was measured using a cell viability assay kit (Daeil Lab Service Co., LTD., Seoul, Korea). Specifically, confluent BAECs were serum-starved for 16 hours, and then various concentrations of pinosylvin or 20% serum were added and incubated. The cells were washed more than twice with PBS and reacted with the WST-1 reagent. The live cells were then measured at 450 nm using an ELISA microplate reader (Bio-Rad, Model 550).

ERK = assay: Western blotting of p-ERK in BAECs; format: cell-based, Bovine; conditions: 1 pM pinosylvin, 0 to 60 minutes, serum-depleted BAECs, FIG. 2
Protocol: as §2

[5] = test system: Bovine aortic endothelial cells (BAECs); assay: Serum starvation-induced apoptosis of endothelial cells (apoptotic cell count under microscope); format: cell-based
Protocol: as §1
[…] Since pinosylvin is not commercially available, it was synthesized as described (Park et al., Cell Physiol Biochem. 2011; 27(3-4): 353-62.). […]
Confluent BAECs were starved for more than 4 hours, treated with pinosylvin, and then incubated for an additional period of time (0 hours, 12 hours, 24 hours, and 48 hours) for the evaluation of time-dependent changes in apoptosis. […] For quantification, the present inventors counted the number of apoptotic cells in the same visual field.

p38 MAP kinase = assay: Western blotting of p-p38 MAP kinase in BAECs; format: cell-based, Bovine; conditions: 1 pM pinosylvin, 0 to 60 minutes, serum-depleted BAECs, FIG. 2
Protocol: as §2

Akt = assay: Western blotting of p-Akt in BAECs; format: cell-based, Bovine; conditions: 1 pM pinosylvin, 0 to 60 minutes, serum-depleted BAECs, FIG. 2
Protocol: as §2

| Compound | fragmentation of the nuclei (Hoechst 33258 staining) ([1]; cells treated with 100 μM ETO alone) | caspase-3 activation (caspase-3; 100 μM ETO) | fragmentation of the nuclei (Hoechst 33258 staining), ETO-induced ([1]; 1 pM pinosylvin together with 100 μM ETO) | cell migration [2] | JNK phosphorylation (JNK) | effect of tube formation by pinosylvin when treated concurrently with L-NAME ([3]; 1 pM pinosylvin with 2.5 mM L-NAME (eNOS inhibitor)) | tube formation compared to the control group ([3]; 1 pM pinosylvin) | eNOS phosphorylation (eNOS) | number of cells compared with untreated cells (microscope) ([4]; 1 pM pinosylvin, thirty percent confluent BAECs, FIG. 3A) | cell proliferation, WST-1 assay ([4]; DMEM with none or 20% serum, 24 hours, FIG. 3B) | ETO-induced caspase-3 activation (caspase-3; 1 pM pinosylvin, 100 μM ETO) | starvation-induced caspase-3 activation (caspase-3; 1 pM pinosylvin, serum-depleted cells) | ERK phosphorylation (ERK) | starvation-induced apoptosis, apoptotic cells counted per visual field ([5]; 1 pM to 10 μM of pinosylvin, FIG. 1A bottom panel) | serum starvation-induced apoptosis (round and shrunken cells) ([5]; BAECs serum-starved for 72 hours, low dose of pinosylvin, FIG. 1A top panel) | p38 phosphorylation (p38 MAP kinase) | Akt phosphorylation (Akt) |
| --- | --- | --- | --- | --- | --- | --- | --- | --- | --- | --- | --- | --- | --- | --- | --- | --- | --- |
| COc1cc([C@@H]2c3cc4c(cc3[C@@H](O[C@@H]3O[C@@H]5CO[C@@H](C)O[C@H]5[C@H](O)[C@H]3O)[C@H]3COC(=O)[C@H]23)OCO4)cc(OC)c1O [ETO, etoposide, reference compound] | detected | activate caspase-3 |  |  |  |  |  |  |  |  |  |  |  |  |  |  |  |
| Oc1cc(O)cc(/C=C/c2ccccc2)c1 [pinosylvin, 5-[(E)-2-phenylethenyl]benzene-1,3-diol] |  |  | markedly reduced level | significantly promote cell migration | remained largely unchanged | reduced | significantly increase tube formation | substantially promoted | increased | promote cell proliferation regardless of the presence of serum | inhibited | inhibited | remained largely unchanged | inhibited | prevent serum starvation-induced apoptosis | remained largely unchanged | substantially promoted |
